The values that follow come from article PMC7570852, “Ruthenium(II)/(III) DMSO-Based Complexes of 2-Aminophenyl Benzimidazole with In Vitro and In Vivo Anticancer Activity” (Molecules, 2020).

In one data set the test system is Caco2 cells. Nature of the data set: DNA fragmentation (agarose gel), Caco2. In kind it is cell-based, human. The settings on record: Caco2, 117.6 µg/mL, 4 h. The procedure:
MCF7 and Caco2 cells were collected and genomic DNA was extracted using a Gene JET genomic DNA extraction kit following the manufacturer’s protocol (Thermo Scientific, #K0721). The extracted DNA samples were run on a 1.5% agarose gel at 50 V for 2 h and the fragment pattern was visualized by ethidium bromide staining under a UV transilluminator.

Data set [1] can be described thus: Maximum tolerated dose in healthy mice. In kind it is in vivo. The procedure:
These mice were examined daily for any sign of toxicity and weighed every two days. […] Therefore, doses of 6, 12, and 18 mg/kg were used in subsequent experiments.

Data set [2] relates to caspase 3 gene expression. Nature of the data set: Real-time qPCR of liver tissue, caspase 3. The conditions noted are these: liver tissue of EAC-bearing mice, vs untreated. In kind it is in vivo. The procedure:
RNA was isolated from liver tissues using a RNeasy Mini kit. The integrity and purity of RNA were assessed by 1% agarose gel electrophoresis and nanodrop, respectively. The obtained RNA was reverse transcribed to yield cDNA using Quantiscript reverse transcriptase. Specific primers for Bax, caspase 3, and Bcl2 genes in addition to the housekeeping gene, β actin were designed by the Primer 3 web-based tool based on the published mice sequences (Table 5). Quantitative real-time PCR (qPCR) was performed using QuantiTect SYBR Green qPCR Master Mix in a StepOnePlus real-time PCR system and the melting curve condition and fold change calculation were done as previously described.
(Quantitative PCR measures a nucleic acid by following its amplification.)

In a further data set the test system is MCF7 cells. Nature of the data set: Cell-cycle analysis by flow cytometry (PI), MCF7. In kind it is cell-based, human. The conditions noted are these: MCF7, 117.6 μg/mL, 24 h. The procedure: The Ru(III) complex (2) (117.6 μg/mL) was added to MCF7 and Caco2 cells at a confluence of 70–80% and incubated for 24 h (in a CO2 incubator). The cells were then digested with warm trypsin-EDTA + warm PBS-EDTA (0.25%) (500 + 500 μL) with incubation for 10 min at 37 °C. The mixture was centrifuged (450 rpm) for 5 min, then the supernatant was removed. The mixture was washed twice in warm PBS and the cell pellet was re-suspended in 500 µl warm PBS, centrifuged and the supernatant decanted. A volume of 150 μL PBS + 350 μL ice-cold 70% ethanol was added and incubated at 4 °C for 1 h to fix the cells. To remove ethanol, the mixture was centrifuged at 350 rpm for 10 min and then the supernatant was removed. The mixture was washed twice in warm PBS and the cells were re-suspended in 500 μL of warm PBS, centrifuged, and the supernatant was removed. The cells were resuspended in 100 μL PBS and stored at 4 °C for up to four days. In darkness, the cells were stained with 100 µL of propidium iodide (PI) solution + 50 µL RNase A solution (100 µg/mL) and incubated in darkness for 30–60 min. The stained cells were read in an Attune flow cytometer (Applied Bio-system, Foster City, CA, USA).
In general terms: A flow cytometer gives signals particle by particle.

A short description of the next data set: Cyclic voltammetry. Type of data set: physicochemical. The conditions noted are these: 10^−3 M in CH2Cl2/DMSO, 0.1 M (Bu4N)PF6, scan rate 50 mVs^−1. The procedure: Elemental analyses (C, H, N) were performed by the Microanalysis unit in the Department of Chemistry at Simon Fraser University. Infrared spectra (FTIR) were performed on a JASCO 4100 FTIR spectrophotometer in the 4000–400 cm^−1 range using a KBr disc. NMR (^1H and ^13C) spectra were recorded in DMSO-d6 solvent using a Bruker 400 MHz instrument. The 2D NMR analysis (^1H–^1H COSY) was performed on a Jeol 500 MHz NMR, at Mansoura University. ESI/APCI HRMS data were acquired on a Thermo Scientific Exactive Plus Orbitrap mass spectrometer. Electronic spectra (in DMSO, 200–900 nm) were measured on a JASCO 630 V spectrophotometer. Emission spectra of the complexes were measured on a Jenway model 6285 spectrofluorimeter for excitation and emission spectra, 200–700 nm. The magnetic susceptibility of the complexes was measured on a Johnson Matthey magnetic susceptibility balance. […] A microplate reader (StatFax-2100, Awareness Technology, Inc., Palm City, FA, USA), Attune flow cytometer (Applied Biosystems, Foster City, CA, USA), Quawell nanodrop Q5000 (San Jose, CA, USA), StepOnePlus real time PCR system (Applied Biosystems, Foster City, CA, USA), and CO2 incubator (NuAire In-Vitro Cell, Plymouth, MN, USA) were used in biological studies.

For the molecule `CS(C)=O.Nc1ccccc1-c1nc2ccccc2[nH]1.O.[Cl][Ru]([Cl])[Cl]` [(2), [Ru(III)Cl3(DMSO)(Hapbim)]·H2O], in the data set with Caco2 cells, the DNA fragmentation entry is “distinct DNA laddering”. In addition, the “toxicity on repeated dosing” value in data set [1] (healthy mice, 6, 12 and 18 mg/kg i.p., until the 12th day) is “No weight loss or signs of toxicity”. In data set [1] (healthy mice, 30 and 40 mg/kg i.p.), the “toxicity on repeated dosing” value was “toxic after 3-5 days and all the animals were dead on the fifth day”. Further, in data set [2], the “caspase 3 mRNA level” value is reported as “significant increases”. Besides, in the data set on MCF7 cells, the “cells in G0/G1 phase” value is listed as 24%, the “cells in G2/M phase” value is reported as 55% and the “cells in S phase” value was 21%. Besides, in the data set “Cyclic voltammetry”, the “E1/2 (Ru(II)/Ru(III) redox couple)” value is listed as −295 mV.
